Structures can show the parent of a compound that is named as a salt.
Key:
[1] = tested on: HUVEC recruited by human melanoma cells; assay: Trans-well endothelial recruitment assay; type: cell-based; settings: for ability of melanoma cells to recruit endothelial cells: MeWo, HT-144, SK-Mel-2, SK-Mel-334.2, 1 μM for 72 hours
Description: 5×10^4 cancer cells were seeded into 24-well plates approximately 24 hours prior to the start of the assay. HUVEC's were grown to 80% confluency and serum starved in EGM-2 media supplemented with 0.2% FBS for 16 hours. HUVEC's were then pulsed with Cell Tracker Red CMTPX dye (C34552, Invitrogen) for 45 minutes. Meanwhile, cancer cells were washed with PBS, 0.5 mL of 0.2% FBS EGM-2 media was added to each well, and a 3.0 μm HTS Fluoroblock insert (351151, BD Falcon, San Jose, Calif.) was placed into each well. 1×10^5 HUVEC's, resuspended in 0.5 mL of starvation media, were seeded into each trans-well insert, and the recruitment assay was allowed to proceed for 16-18 hours at 37° C. For neutralization antibody and/or recombinant protein experiments, antibody/protein was then added to each well at the appropriate concentration as indicated in the figures: 40 μg/mL anti-ApoE 1D7, 40 μg/mL anti-IgG, 100 μM rhApoE3, and 100 μM BSA. Upon completion of the assay, the inserts were processed and analyzed as described for the matrigel invasion assay above (See Matrigel Invasion Assay).
The endothelial recruitment assay was carried out as previously described (Pencheva et al., 2012; Png et al., 2012). Melanoma cells were treated with DMSO, GW3965, T0901317, or Bexarotene at 1 μM for 56 hours, after which 5×10^4 cells were seeded in a 24-well plate in the presence of each drug and allowed to attach for 16 hours prior to starting the assay. HUVEC cells were serum-starved overnight in EGM-2 media containing 0.2% FBS. The following day, 1×10^5 HUVEC cells were seeded into a 3.0 μm HTS Fluoroblock trans-well migration insert (351151, BD Falcon, San Jose, Calif.) fitted into each well containing cancer cells at the bottom. The HUVEC cells were allowed to migrate towards the cancer cells for 20 hours at 37° C., after which the inserts were processed as previously described (Pencheva et al., 2012). For ApoE antibody neutralization experiments, 40 μg/mL 1D7 anti-ApoE blocking antibody (Heart Institute, University of Ottawa, Ottawa, Canada) or 40 μg/mL anti-IgG control antibody (AB-108-C, R&D Systems, Minneapolis, Minn.) was added to each trans-well insert at the start of the assay.
Subsequently, 5×10^4 cancer cells were seeded into 24-well plates in the presence of each drug or DMSO and allowed to attach for 16 hours prior to starting the assay. Human umbilical vein endothelial cells (HUVEC cells) were serum-starved in 0.2% FBS-containing media overnight. The following day, 1×10^5 HUVEC cells were seeded into a 3.0 μm HTS Fluoroblock insert (351151, BD Falcon) fitted into each well containing the cancer cells at the bottom. The HUVEC cells were allowed to migrate towards the cancer cells for 20 hours, after which the inserts were washed in PBS, fixed in 4% PFA, labeled with DAPI, and mounted on slides. The basal side of each insert was imaged using an inverted fluorescence microscope (Zeiss Axiovert 40 CFL) at 5× magnification, and the number of DAPI-positive cells was quantified using ImageJ.

[2] = tested on: ApoE promoter fused to ME.1 or ME.2 in MeWo cells; assay: ApoE promoter activity (luciferase) assay; type: cell-based, human; settings: 1 μM, 24 hours
Text: The ApoE promoter, consisting of a sequence spanning 980 base pairs upstream and 93 base pairs downstream of the ApoE gene, was cloned into a pGL3-Basic vector (E1751, Promega Corporation, Madison, Wis.) upstream of the firefly luciferase gene using NheI and SacI restriction enzymes. Then, multi-enhancer elements 1 (ME.1) and 2 (ME.2) were cloned directly upstream of the ApoE promoter using MluI and […] restriction enzymes. To assess ApoE promoter- and ME.1/ME.2-driven transcriptional activation by LXR agonists, 5×10^4 MeWo cells were seeded into a 24-well plate. The following day, 100 ng of pGL3-ME.1/ME.2-ApoE promoter construct and 2 ng of pRL-CMV renilla luciferase construct (E2261, Promega) were co-transfected into cells in the presence of DMSO, GW3965, or T0901317 at 1 μM, each condition in quadruplicate. To assess transcriptional activation by LXRα or LXRβ, 5×10^4 MeWo cells expressing a control shRNA or shRNA targeting LXRα or LXRβ were seeded into a 24-well plate. […] After 24 hours, cells were lysed, and cell lysate was analyzed for firefly and renilla luciferase activity using the Dual Luciferase Assay System (E1960, Promega) and a Bio-Tek Synergy NEO Microplate Reader. Firefly luciferase signal was normalized to renilla luciferase signal and all data are expressed relative to the luciferase activity ratio measured in the DMSO-treated control cells.

[3] = tested on: human melanoma cells (MeWo, MeWo-LM2, A375-LM3, HT-144, SK-Mel-334.2); assay: Tail-vein lung metastatic colonization assay, bioluminescence imaging; type: in vivo
Description: After 8 hours, the transfection media was replaced with fresh media. After 48 hours, 1×10^5 cells were injected intravenously into NOD-SCID mice to assess lung metastatic colonization or through intracardiac injection into athymic nude mice to assess systemic metastasis. For cell invasion and endothelial recruitment in vitro assays, the cells were used 96 hours post-transfection.
Melanoma cells used for in vivo metastasis assays were transduced with a stably expressed retroviral construct encoding a luciferase reporter gene (Ponomarev et al., 2004), allowing us to monitor the in vivo progression of melanoma cells by bioluminescence imaging. The following numbers of melanoma cells, resuspended in 100 μL, of PBS, were injected intravenously via the tail-vein: 4×10^4 MeWo cells, 2.5×10^5 HT-144 cells, 2×10^5 SK-Mel-334.2 cells, 5×10^4B16F10 cells, and 1×10^5 YUMM cells. The MeWo, HT-144, and SK-Mel-334.2 cells were injected into 6-8 week-old sex-matched NOD scid mice, while the B16F10 and YUMM cells were injected into 6-8 week-old sex-matched C57BL/6 mice. In all experiments assessing at the effects of GW3965 on metastasis formation, mice were pre-treated on a control diet or a GW3965-supplemented diet (20 mg/kg) for 10 days. To assess the effect of GW3965 treatment on brain metastasis, 1×10^5 MeWo brain-metastatic derivatives were injected intracardially into athymic nude mice. Immediately following injection, mice were randomly assigned to a control diet or GW3965-supplemented diet (100 mg/kg). To determine whether oral delivery of GW3965 can inhibit the progression of incipient metastasis, NOD Scid mice were intravenously injected with 4×10^4 MeWo cells and the cells were allowed to colonize the lungs for 42 days, after which mice were blindedly assigned to a control diet or a GW3965-supplemented diet (100 mg/kg) treatment.

Compound	ability of melanoma cells to recruit endothelial cells [1]	endothelial recruitment ([1]; parental MeWo cells pre-treated 48 hours)	activity of luciferase reporter with ApoE promoter fused to ME.1 or ME.2 [2]	reduction in metastatic colonization capacity ([3]; MeWo cells pre-treated at 1 μM for 48 hours before injection)	reduction in lung metastatic colonization ([3]; MeWo cells, oral in chow 20 mg/kg from 10 days before injection) [fold]	survival times following metastatic colonization ([3]; MeWo, chow 20 mg/kg)	suppression of colonization by incipient lung metastases ([3]; MeWo, diet 100 mg/kg from d42) [fold]	number of macroscopic metastatic nodules formed ([3]; MeWo, diet 100 mg/kg from d42, lungs at d77)	metastatic colonization by HT-144 and SK-Mel-334.2 ([3]; oral in diet)	in vivo melanoma metastasis (lung, bioluminescence) ([3]; parental MeWo cells, chow diet 20 mg/kg)	ability of endothelial cells to migrate towards highly metastatic cancer cells ([1]; endothelial cells pre-treated 24 hours, 100 μM)	endothelial recruitment by metastatic LM2 cells ([1]; recombinant ApoE3 100 μM in cell media)	suppression of metastatic colonization ([3]; MeWo-LM2 cells pre-incubated 24 hours at 100 μg/mL before injection, NOD-SCID mice)
O=C(O)Cc1cccc(OCCCN(Cc2cccc(C(F)(F)F)c2Cl)CC(c2ccccc2)c2ccccc2)c1 [GW3965 2, 3-[3-[N-(2-Chloro-3-trifluoromethylbenzyl)-(2,2-diphenylethyl)amino]propyloxy]phenylacetic acid hydrochloride]	consistently suppressed	decreased	enhance	more than 50 fold	31	significantly prolonged	28	decreased	suppressed	significant reduction	–	–	–
O=S(=O)(c1ccccc1)N(CC(F)(F)F)c1ccc(C(O)(C(F)(F)F)C(F)(F)F)cc1 [T0901317 1]	consistently suppressed	–	enhance	–	–	–	–	–	–	–	–	–	–
recombinant human ApoE3: recombinant human ApoE3 (4696, BioVision)	–	–	–	–	–	–	–	–	–	–	significantly reduced	significantly suppressed	over 300 fold
